Test results from patent US20060002932A1, “Methods and compositions for enhancement of immunity by in vivo depletion of immunosuppressive cell activity” (priority 2004, published 2006).
Values joined by “and” are separate entries in the source; they are usually repeats but may differ in a detail not shown here. Equal entries are not always repeated. “Also recorded” adds a separate entry of the source.

Assays:
[1] = tested on: CD4^+CD25^− and CD4^+CD25^int cells; assay: MTT cytotoxicity assay on CD25 negative/intermediate CD4+ T cells; type: cell-based, human
Method: After 48 hours of incubation, 20 μL MTT from a 5 mg/mL stock was added and incubation was continued for another 4 hours. The formazan crystals were solubilized by adding 100 μL isopropanol/0.1 M hydrochloric acid and incubating at 37° C. for 2 hours. The absorbance of the formazan product was measured on an enzyme-linked immunosorbent assay (ELISA) plate reader at 570 nm.
Interferon-γ and IL-4 ELISPOT analyses were performed using PBMC obtained prior to, during, and after vaccination. PBMC were cultured overnight in complete RPMI 1640 medium. CD4^+ and CD8^+ T cells were isolated from PBMC by negative depletion (Miltenyi). After blocking, 1×10^5 T cells and 1×10^4 RNA-transfected DC were added to each well of 96-well nitrocellulose plates (Multiscreen-IP, Millipore) precoated with 2 μg/ml Interferon-γ capture antibody (Endogen) or with IL-4 capture antibody (BD Biosciences Pharmingen). Plates were incubated for 20 hours at 37° C., and biotinylated Interferon-γ detection antibody (Endogen) or biotinylated IL-4 antibody (BD Biosciences Pharmingen) was added to each well. […] After washing, spots were counted using an automated ELISPOT reader (Carl Zeiss). […] Then, 50 μl of supernatant was harvested, and release of ^51Cr was measured with a scintillation counter. […] Incorporation of thymidine was determined using a liquid scintillation counter.

[2] = tested on: PBMC; assay: MTT viability of PBMC (bystander toxicity); details: DAB389IL-2 5 nM
[3] = tested on: antigen-specific CTL from PBMC; assay: 51Cr cytotoxicity assay of CTL stimulated from DAB389IL-2-depleted PBMC; type: cell-based, human
[4] = tested on: CD4^+ T-cell populations with increasing densities of CD25; assay: 7-AAD staining of CD4+ T-cell populations; type: cell-based, human
[5] = tested on: renal tumor-specific CD4^+ T cells; assay: Cytokine profile of vaccine-induced CD4+ T cells (ELISPOT, Th1/Th2 bead array); type: in vivo, human
[6] = tested on: CD4^+CD25^high regulatory T cells; assay: MTT cytotoxicity assay on isolated regulatory T cells; type: cell-based, human
Method: […] The formazan crystals were solubilized by adding 100 μL isopropanol/0.1 M hydrochloric acid and incubating at 37° C. for 2 hours. The absorbance of the formazan product was measured on an enzyme-linked immunosorbent assay (ELISA) plate reader at 570 nm.
Interferon-γ and IL-4 ELISPOT analyses were performed using PBMC obtained prior to, during, and after vaccination. PBMC were cultured overnight in complete RPMI 1640 medium. CD4^+ and CD8^+ T cells were isolated from PBMC by negative depletion (Miltenyi). After blocking, 1×10^5 T cells and 1×10^4 RNA-transfected DC were added to each well of 96-well nitrocellulose plates (Multiscreen-IP, Millipore) precoated with 2 μg/ml Interferon-γ capture antibody (Endogen) or with IL-4 capture antibody (BD Biosciences Pharmingen). Plates were incubated for 20 hours at 37° C., and biotinylated Interferon-γ detection antibody (Endogen) or biotinylated IL-4 antibody (BD Biosciences Pharmingen) was added to each well. Cells were then incubated for an additional two hours at room temperature, then with streptavidin-alkaline phosphatase (1 μg/ml; Sigma) and plates were developed with substrate (Kirkegaard & Perry Laboratories). After washing, spots were counted using an automated ELISPOT reader (Carl Zeiss). CTL assays were performed by coculturing RNA-transfected DC with autologous PBMC. Cells were restimulated once and IL-2 (20 units/ml) was added after five days and every other day thereafter. After 12 days of culture, effector cells were harvested. Target cells were labeled with 100 μCi of Na2[^51CrO4] (NEN) in 200 μl of complete RPMI 1640 for one hour at 37° C. in 5% CO2 and ^51Cr-labeled target cells were incubated in complete RPMI 1640 medium with effector cells for five hours at 37° C. Then, 50 μl of supernatant was harvested, and release of ^51Cr was measured with a scintillation counter. For proliferation assays, purified CD3^+ T cells were seeded into round-bottomed microplates in the presence of mRNA-transfected DC. […] Incorporation of thymidine was determined using a liquid scintillation counter.

[7] = tested on: CD4^+CD25^int memory T-cell pool; details: after DAB389IL-2 administration; fluM1, CMV, tetanus toxoid
[8] = tested on: CD3+, CD4+, CD8^+ T cells, B cells, monocytes/macrophages, NK cells; assay: Relative numbers of leukocyte subsets before and after DAB389IL-2; type: in vivo, human
Method: Using these methods, the degree of regulatory T cell depletion efficacy in the four subjects treated on the clinical protocol was determined.

[9] = tested on: tumor-specific T cells; assay: Interferon-γ ELISPOT of vaccine-induced tumor-specific T cells in patients; type: in vivo, human
Method: PBMC were cultured overnight in RPMI 1640 medium supplemented with 10% FCS. […] After washing, spots were counted using an automated Zeiss KS Elispot Compact reader (Carl Zeiss Inc., Minneapolis, Minn.).
In order to determine whether DAB389IL-2-mediated regulatory T cell depletion is capable of augmenting vaccine-induced CTL responses in vivo, Interferon-γ ELISPOT analysis was used to determine the frequencies of vaccine-induced, tumor-specific T cells from PBMC samples collected prior to (white bars) and two weeks after (grey bars) the third vaccination (study week 8). Purified CD8^+ T cells were isolated from pre- and post-vaccination PBMCs and were cultured overnight with tumor RNA transfected DC targets. As controls, PBMC RNA or benign renal epithelium (RE)-derived RNA-transfected DCs were used for short-term antigenic stimulation. Visible spots were then counted using an automated ELISPOT reader. […] In contrast, a significant increase of tumor-specific T cells was consistently observed in the treated subjects after vaccination. […]
Pre- and post-treatment T-cell analysis was performed by Interferon-γ ELISPOT on all patients who completed immunotherapy. Increases of antigen-specific CD4^+ and CD8^+ T cells after vaccination were compared using the Wilcoxon matched-pairs signed rank test, analyzing the null hypothesis that the rates of change in T-cell response were equivalent prior to and after therapy. A two-sided p-value of <0.05 was considered statistically significant.
In order to determine whether DAB389IL-2-mediated Treg depletion is capable of augmenting vaccine-induced CD8^+ and CD4^+ T-cell responses in cancer patients, Interferon-γ ELISPOT analyses were performed to determine the frequencies of vaccine-induced, tumor-specific T cells from PBMC samples collected before and two weeks after the third vaccination. CD8^+ and CD4^+ T cells were isolated from pre- and post-vaccination PBMC and cultured overnight with tumor RNA-transfected DC targets. As controls, autologous PBMC RNA or autologous benign renal epithelium (RE)-derived RNA-transfected DC were used for short-term antigenic stimulation. As exemplified by the 3 study subjects shown in FIG. 10A, only background levels of PBMC-specific T cells were observed before (white bars) or after vaccination (grey bars).

[10] = 6-hour exposure, viability over 48 hours
[11] = 6 RCC patients, DAB389IL-2 plus RCC RNA-transfected DC
[12] = per patient, DAB389IL-2 4 days prior to tumor RNA-transfected DC vaccination

In the case of denileukin diftitox [DAB389IL-2], the “concentration above which cell death occurred in CD4^+CD25^− and CD4^+CD25^int cells” value [1] is reported as “higher than 10 nM”, the “cell death of CD4^+CD25^− and CD4^+CD25^int cells” value ([1]; concentrations up to 10 nM) is reported as “did not result in significant cell death” and the “PBMC viability over time” value [2] is reported as “no significant differences in PBMC viability”. The “improvement of antigen-specific killing” value ([3]; MART-1 peptide-pulsed DC as stimulators, DAB389IL-2 5 nM) was “only modest, statistically insignificant improvement of antigen-specific killing”, the “lytic activity of CTL stimulated from Treg-depleted vs non-depleted PBMC” value ([3]; mRNA-transfected DC stimulators (hTERT, MART-1)) was “higher lytic activity against their cognate targets; also recorded: significantly higher lytic activity” and the “improvement of CTL responses” value ([3]; recall antigen fluM1, or peptide-loaded DC as stimulators) was “ineffective in improving CTL responses”. The “7-AAD staining of other CD4^+ T cells with lower or no CD25 expression” value [4] was “only background levels of 7-AAD staining”, the “concentration giving optimal killing of CD4^+/CD25^high Treg” value ([4]; 7-AAD staining) was 5 nM and the “Th1/Th2 cytokine secretion by vaccine-induced T cells (bead array)” value ([5]; 18 hours stimulation with RCC RNA-transfected DC) was “secretion of Th-1 type cytokines (IL-2, Interferon-γ, or TNF-α), but not Th-2 type cytokines”. The “Interferon-γ / IL-4 secreting renal tumor-specific CD4 T cells (ELISPOT)” value ([5]; one subject, DAB389IL-2 followed by vaccination) was “stimulation of Interferon-γ, but not IL-4-secreting renal tumor-specific CD4 T cells”, the “concentration giving complete depletion of CD4^+CD25^high cells” value [6, 10] was 5 nM and the “concentration giving efficient killing of CD4^+CD25^high cells” value [6, 10] was 0.5 nM. The “cell viability of CD4^+CD25^high regulatory T cells” value ([6]; 24 hours following exposure) was “significant reduction in cell viability”, the “antigen-specific proliferative reactivities against recall antigens” value [7] was “unchanged reactivities” and the “change in CD8^+/CD25^+ or CD19^+/CD25^+ cells” value ([8]; one subject analyzed) was “no decrease”. For the same substance, the “change in relative number of CD3+, CD4+, CD8+ T cells, B cells, monocytes/macrophages and NK cells” value ([8]; prior to and after treatment) was “no significant changes”, the “median increase in tumor-specific CD4^+ T cells” value [9, 11] was 7.2 fold and the “median increase in tumor-specific CD8^+ T cells” value [9, 11] was 7.9 fold. The “tumor-specific T-cell response after DAB389IL-2 alone” value ([9]; DAB389IL-2 only, no vaccine) was “did not increase a tumor-specific CTL response in vivo; also recorded: did not significantly increase”, the “tumor-specific (CD8^+) T cells vs vaccination alone” value ([9]; DAB389IL-2 plus vaccination compared with vaccine alone) was “significantly higher numbers of tumor-specific CD8^+ T cells” and the “increase in tumor-specific CTL frequencies” value ([9]; Example 2, subjects receiving combined treatment) was “up to 16 fold”. For the same substance, the “CD4^+ T-cell responses vs vaccination alone” value ([9]; combined therapy, RCC patients, p=0.055) was “trend towards improved CD4^+ T-cell responses”, the “ELISPOT (Fold increase after vaccination) CD4^+” value [9, 12] was 7.6 fold and 6.3 fold and 2.2 fold and 9.7 fold and 31.0 fold and 6.8 fold and 4.5 fold and the “ELISPOT (Fold increase after vaccination) CD8^+” value [9, 12] was 16.0 fold and 12.5 fold and 5.4 fold and 7.4 fold and 7.8 fold (2×) and 8.0 fold. For the same substance, the “longitudinal vaccine-induced CD8^+ T-cell response” value ([9]; subject 02-DAB vs 11-RCC) was “significantly enhanced and also prolonged CD8^+ T-cell response”.
